Reference: PMC7516017, “Organoids to Study Intestinal Nutrient Transport, Drug Uptake and Metabolism – Update to the Human Model and Expansion of Applications” (Frontiers in Bioengineering and Biotechnology, 2020)
Where two headings read alike, the source gives them in different places.

Key:
Pept1 [1] = target: T1, Pept1 (Mus musculus, UniProt Q9JIP7); assay: Competition assay using radiolabeled Gly-Sar, murine small intestinal organoids (wild type and Pept1 knockout); assay type: in vitro ADME; details: 13mM cyclic hexapeptide (solubilized in DMSO) versus 5mM Gly-Sar (14C tracer 1mM); organoids from wild type and Pept1-deficient mice; HEPES-saline buffer pH 6.5, 37 °C; liquid scintillation; n = 5–6; Figure 2G
T1 construct: endogenous in cells; host or cells: murine small intestinal organoids (C57BL/6 wild type; Pept1-/- organoids as control)
T1 sequence (Q9JIP7 1-709): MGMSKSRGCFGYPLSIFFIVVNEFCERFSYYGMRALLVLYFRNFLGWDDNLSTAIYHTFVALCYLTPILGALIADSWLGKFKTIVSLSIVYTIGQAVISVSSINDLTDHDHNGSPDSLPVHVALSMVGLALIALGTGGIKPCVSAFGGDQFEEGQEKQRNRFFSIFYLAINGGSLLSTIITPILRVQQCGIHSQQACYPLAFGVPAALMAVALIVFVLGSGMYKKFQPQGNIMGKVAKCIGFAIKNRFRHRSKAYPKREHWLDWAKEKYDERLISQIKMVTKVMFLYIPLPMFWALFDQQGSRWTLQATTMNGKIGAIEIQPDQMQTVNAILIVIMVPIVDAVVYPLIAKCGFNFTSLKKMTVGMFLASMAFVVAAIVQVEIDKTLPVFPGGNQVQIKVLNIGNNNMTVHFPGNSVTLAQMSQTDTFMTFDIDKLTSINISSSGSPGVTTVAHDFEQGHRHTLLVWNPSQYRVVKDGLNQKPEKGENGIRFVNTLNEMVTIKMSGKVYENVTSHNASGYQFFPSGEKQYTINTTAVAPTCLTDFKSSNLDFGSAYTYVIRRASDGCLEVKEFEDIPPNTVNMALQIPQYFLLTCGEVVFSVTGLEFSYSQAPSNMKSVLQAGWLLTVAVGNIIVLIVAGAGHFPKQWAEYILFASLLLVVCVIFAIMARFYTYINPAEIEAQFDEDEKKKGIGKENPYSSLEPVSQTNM
Experimental: (§1) Intestinal organoids – Transport & Metabolism […]
(§2) addition of fructose. Following incubation, substrate/inhibitor solutions were removed from intact […]
(§3) centrifuged (300g, 10min). For “broken up” organoids, dissociated organoids were centrifuged (300g, 3min) and washed three times with PBS. During these steps, PBS for washing contained glucose and […]
(§4) 3 ml of Bioscint® Scintillation […]
(§5) organoids was quantified using a liquid scintillation counter (PerkinElmer). Residual amounts of all […]
in dissolved organoids derived from the ileum.
(§6) 1.7. Peptide and drug transport studies
The protocol for peptide and
(American Radiolabeled Chemicals). Final substrate concentrations used were: 5mM Gly-Sar […]
Weinmüller and Horst Kessler, and solubilized in DMSO. Peptide transporter studies were performed […]
(§7) 1.8. Imaging of intracellular acidification
(§8) 100µM Amilorid, and 50µM S1611 (Sanofi Aventis). Image series were captured using a Leica […]
(§9) Calculations and imaging data […]
(§10) intestinal Wt organoids or in human duodenal organoids.

Caco-2 = details: cited from earlier work
Text: (§11) As mentioned before, peptide transporters also play a role in drug uptake, including peptidomimetics. […] For example, peptidomimetics have been designed for cancer therapy, e.g., to induce apoptosis ([Walensky et al., 2004]), sensitize cancer cells to chemotherapeu ...

PEPT1 [2] = target: T2, PEPT1 (Homo sapiens, UniProt P46059); assay: Competition assay using radiolabeled Gly-Sar, human duodenal organoids; details: HEPES-saline buffer pH 6.5, 37 °C, liquid scintillation, n = 5–6
T2 sequence (P46059 1-708): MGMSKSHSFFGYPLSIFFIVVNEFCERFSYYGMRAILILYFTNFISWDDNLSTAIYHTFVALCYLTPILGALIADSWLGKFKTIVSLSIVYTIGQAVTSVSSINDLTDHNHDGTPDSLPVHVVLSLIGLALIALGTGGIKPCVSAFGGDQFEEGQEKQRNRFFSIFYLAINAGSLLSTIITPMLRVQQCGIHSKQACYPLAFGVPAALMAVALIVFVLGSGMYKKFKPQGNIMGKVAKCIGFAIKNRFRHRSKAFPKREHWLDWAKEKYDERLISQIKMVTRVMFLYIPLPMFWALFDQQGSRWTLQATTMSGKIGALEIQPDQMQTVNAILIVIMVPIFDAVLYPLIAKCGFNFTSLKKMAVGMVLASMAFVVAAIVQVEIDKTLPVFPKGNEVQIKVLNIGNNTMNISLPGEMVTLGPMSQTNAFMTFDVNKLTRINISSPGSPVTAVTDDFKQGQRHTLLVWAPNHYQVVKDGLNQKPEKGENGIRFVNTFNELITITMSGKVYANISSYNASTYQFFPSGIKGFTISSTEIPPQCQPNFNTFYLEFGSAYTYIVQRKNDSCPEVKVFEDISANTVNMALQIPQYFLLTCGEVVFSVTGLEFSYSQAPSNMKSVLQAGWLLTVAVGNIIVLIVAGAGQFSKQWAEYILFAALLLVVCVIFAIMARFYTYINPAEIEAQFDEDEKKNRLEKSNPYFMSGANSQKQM
Experimental: Intestinal organoids – Transport & Metabolism fructose uptake assay. Inhibitors were added 10min prior to addition of glucose and 30min prior to addition of fructose. Following incubation, substrate/inhibitor solutions were removed from intact organoids embedded in matrigel and matrigel droplets were washed three times with PBS.
Subsequently, matrigel was dissolved by addition of cold PBS and organoids were resuspended and centrifuged (300g, 10min). For “broken up” organoids, dissociated organoids were centrifuged (300g, 3min) and washed three times with PBS. During these steps, PBS for washing contained glucose and fructose, respectively, to avoid excessive transport of substrates out of the cells. Organoid pellets were resuspended in a lysis buffer containing 150mM NaCl, 50 mM Tris-HCl, 1% Igepal CA-630, 0.5% DCA and a protease inhibitor mix, and incubated for 20min on ice. 3 ml of Bioscint® Scintillation solution (National Diagnostics) were added to the cell lysate and radiolabeled substrate taken up by organoids was quantified using a liquid scintillation counter (PerkinElmer). […]
1.7. […]
Transport activity was assessed by competitive inhibition of the uptake of radiolabeled dipeptide glycyl-sarcosin (Gly-Sar), a hydrolysis-resistant model substrate of Pept1. […]
were assessed using (non-labeled) substrates (Gly-Sar) and 14C-radiolabeled substrate tracers (American Radiolabeled Chemicals). […]

human duodenal organoids [3] = assay: Live-cell imaging of intracellular acidification (BCECF-AM), human organoids; assay type: cell-based; details: 40µM CCCP; for intracellular acidification: BCECF-AM 1μM, ratio F(λex490nm)/F(λex450nm), 50mM Gly-Sar, 50mM Gly-Gly, 5mM Cefadroxil, 50mM glucose, 50mM fructose as negative controls, minimum 6 experiments, representative courses
Experimental: as §6
For peptide and drug transport studies, human organoids were cultivated for 7-9 days after passaging. […]
as §7
For live-cell imaging of intracellular acidification, organoids were incubated with 1μM BCECF-AM (Life Technologies) in HEPES-saline buffer containing 0.01% pluronic F127, 375μM eserine and 2mM […]
substances used were: 50mM Gly-Sar, 50mM Gly-Gly, 5mM Cefadroxil, 40µM CCCP (Sigma), 100µM Amilorid, and 50µM S1611 (Sanofi Aventis). Image series were captured using a Leica […]
and the fluorescence ratio F(λex490nm)/ F(λex450nm) was calculated. Calculations and imaging data analyses were performed using the Leica Application Suite Advanced Fluorescence software. All imaging experiments were performed minimum 6 times and representative time courses are depicted in the manuscript. Imaging of intracellular acidification was performed as indicated in murine small intestinal Wt organoids or in human duodenal organoids.

[4] = system: sodium-proton exchangers (NHEs); assay: Live-cell imaging of intracellular pH after Gly-Sar with NHE inhibitors; assay type: cell-based, mouse; details: BCECF-AM, murine small intestinal organoids, 50mM Gly-Sar, 100µM Amilorid or 50µM S1611
Experimental: as §1, §2
centrifuged (300g, 10min). For “broken up” organoids, dissociated organoids were centrifuged (300g, 3min) and washed three times with PBS. […]
as §7, §8, §9, §10

[5] = system: human organoids derived from different regions of the small intestine; assay: Uptake of radiolabeled glucose with transporter inhibitors; assay type: cell-based; details: 14C-glucose, 5.8mM D-glucose; 1mM inhibitor added 10min prior; intact organoids in matrigel, HEPES-saline buffer pH 7.4, 30 min 37 °C; liquid scintillation; n = 5–6; Figure 2B
Experimental: (§12) Subsequently, medium was changed to CCM for 5 days. […]
(§13) 1.6. Glucose and Fructose transport studies
(§14) Grenoble, France) and transferred in tubes. After repeated (2x) centrifugation (200g, 5min) and […]
Transporter ac tivities were assessed using (non- […]
(§15) from Sigma) and 1mM Rubusoside (VWR, Avantor).
as §1, §2, §3, §4, §5
(§16) in dissolved organoids derived from the ileum. […]
as §9, §10

human duodenal organoids [6] = assay: Uptake of radiolabeled fructose with inhibitors/competitor; assay type: cell-based; details: 14C-fructose, 2.1mM D-fructose; 1mM Phloretin or Rubusoside or 2.1mM D-glucose as competitor; inhibitors added 30min prior; dissolved (broken up) organoids, 45 min 37 °C, pH 7.4; liquid scintillation; n = 5–6
Experimental: as §12, §13, §14
indicated substrate/inhibitor for 45 min at 37 °C. Transporter ac tivities were assessed using (non- […]
as §15, §1, §2, §3, §4, §5, §16, §9, §10

[7] = humans; ref Becker et al., 2015; cited from earlier work
Text: as §11

**Q.** Which results are given for `C[C@@H]1NC(=O)[C@H](CC(=O)O)NC(=O)CNC(=O)[C@H](CCCNC(=N)N)NC(=O)[C@@H](C)N(C)C(=O)[C@H](C)N(C)C1=O` [P2]?
**A.** peptide transporter-mediated uptake judged by competitive inhibition of radiolabeled Gly-Sar uptake (Pept1 [1]): actively transported independently of Pept1; permeability in Caco-2 assay (Caco-2; ref Weinmuller et al., 2017): lacked permeability

**Q.** For `C[C@@H]1NC(=O)[C@H](C)NC(=O)[C@@H](C)N(C)C(=O)[C@H](C)N(C)C(=O)[C@H](C)NC(=O)[C@H](C)NC1=O` [P3], which “peptide transporter-mediated uptake judged by competitive inhibition of radiolabeled Gly-Sar uptake” value (Pept1 [1]) is on record?
**A.** no signs of peptide transporter-mediated uptake

**Q.** And the “competitive inhibition of radiolabeled Gly-Sar uptake” value (PEPT1 [2]; 13mM cyclic hexapeptide (solubilized in DMSO) versus 5mM Gly-Sar (14C tracer 1mM), human duodenal organoids, Figure 2H)?
**A.** significantly reduce radiolabeled Gly-Sar uptake

**Q.** And the “permeability in Caco-2 assay” value (Caco-2; library of N-methylated alanine peptides, ref Ovadia et al., 2011)?
**A.** highly permeable

**Q.** With `O=C(CO)[C@@H](O)[C@H](O)[C@H](O)CO` [fructose, D-fructose] as the molecule, how does the intracellular acidification (human duodenal organoids [3]) read?
**A.** neither glucose nor fructose (used as negative controls) led to an intracellular acidification

**Q.** With “carbonyl cyanide m-chlorophenyl hydrazine [CCCP]” as the molecule, how does the intracellular acidification (human duodenal organoids [3]) read?
**A.** intracellular acidification was demonstrated

**Q.** And the “intracellular pH on stimulation subsequent to Gly-Sar, Gly-Gly and cefadroxil” value (human duodenal organoids [3]; BCECF-AM, human duodenal organoids, Supplementary Figure 3A)?
**A.** additional decline in intracellular pH

**Q.** Which “competitive inhibition of radiolabeled Gly-Sar uptake” value (PEPT1 [2]; 5mM Gly-Gly versus 5mM Gly-Sar (14C tracer 1mM), intact and broken up human duodenal organoids) does the source give for glycyl-glycine [Gly-Gly] here?
**A.** significant reduction of Gly-Sar uptake in both approaches

**Q.** What about the intracellular acidification (human duodenal organoids [3]) of the same molecule?
**A.** intracellular acidification was demonstrated

**Q.** Which results are given for `N=C(N)NC(=O)c1nc(Cl)c(N)nc1N` [Amiloride]?
**A.** recovery of intracellular pH following exposure to Gly-Sar [4]: prevented the recovery of intracellular pH to basal levels; course of intracellular pH in the observed time span after Gly-Sar ([4]; Figures 3G,H): continuous influx of protons

**Q.** Which intracellular acidification (human duodenal organoids [3]) does the source give for `CC1=C(C(=O)O)N2C(=O)[C@@H](NC(=O)[C@H](N)c3ccc(O)cc3)[C@H]2SC1` [cefadroxil] here?
**A.** intracellular acidification was demonstrated

**Q.** Which “effect on glucose uptake” value [5] does the source give for `O=C(CCc1ccc(O)cc1)c1c(O)cc(O)cc1O` [phloretin] here?
**A.** blunted glucose uptake, which was more pronounced

**Q.** And the “effect on fructose transport” value (human duodenal organoids [6])?
**A.** diminished

**Q.** For Cilengitide, which half-life of excretion [7] is on record?
**A.** 4 h

**Q.** What about the metabolic stability [7] of the same molecule?
**A.** completely stable

**Q.** Which intracellular acidification (human duodenal organoids [3]) does the source give for glycyl-sarcosin [Gly-Sar] here?
**A.** intracellular acidification was demonstrated

**Q.** With `O=C(CCc1ccc(O)cc1)c1c(O)cc(O)cc1O[C@@H]1O[C@H](CO)[C@@H](O)[C@H](O)[C@H]1O` [phloridzin] as the molecule, how does the “effect on glucose uptake” value [5] read?
**A.** blunted glucose uptake

**Q.** Which “effect on fructose transport” value (human duodenal organoids [6]) does the source give for `OC[C@H]1OC(O)[C@H](O)[C@@H](O)[C@@H]1O` (stereo partly drawn) [glucose] here?
**A.** diminished

**Q.** What about the intracellular acidification (human duodenal organoids [3]) of the same molecule?
**A.** neither glucose nor fructose (used as negative controls) led to an intracellular acidification
